# In patent US20120231083A1, “SUSTAINED RELEASE CANNABINOID MEDICAMENTS” (The Board of Trustees of the University of Illinois, priority 2010, published 2012):
# Where two headings read alike, the source gives them in different places.
# Key:
# subjects = assay: Oral dosing comparator 1: single immediate release dosage, AHI; assay type: in vivo, human
# Protocol: (§1) For the purpose of comparing oral medicaments (i.e., providing a comparator), a medicament is orally administered to one or more subjects. The various factors affecting ADME (absorption, distribution, metabolism, and excretion) of the drug are standardized. For example, the patient is optionally a fasted patient and optionally falls asleep within one of 15 minutes or 30 minutes of laying down for bed. The same subjects are used for comparing different medicaments (after providing an appropriate wash-out period).
# (§2) Plasma levels of the drug (e.g. THC) and metabolites thereof (e.g. 11-OH-THC) are taken at regular intervals (e.g. every 30 minutes) during a treatment window (e.g. from T0 to T8hr).
# (§3) Therapeutic responses are recorded throughout the entire treatment window.
# (§4) Therapeutic responses are correlated with pharmacokinetic parameters of the drug or metabolites thereof. The pharmacokinetic parameters include one or more of: plasma concentration and AUC (at various times).
# An oral dosing “comparator” is provided by orally administering an immediate release dosage of cannabinoid (e.g. MARINOL® soft gel).
# sleep apnea patient = assay: Oral dosing comparator 2: two immediate release dosages in succession (T0 and T3), AHI; assay type: in vivo, human; conditions: immediate release dosages at T0 and T3
# Protocol: as §1, §2, §3, §4
# A second oral dosing comparator is provided by the method of Example 6, where a first immediate release dosage of cannabinoid (e.g. 2.5 mg MARINOL® soft gel) to a sleep apnea patient 30 minutes before bed at To. The patient is allowed to fall asleep and at a predetermined time, the subject is briefly woken to receive a second immediate release dosage of MARINOL® soft gel (e.g. at T3) and allowed to return to sleep.
# rat model of sleep apnea = conditions: 10 mg/kg intraperitoneal, US 2004/0127572; cited from earlier work
# [1] = in vivo; cited from earlier work
# [2] = cited from earlier work
# [3] = described in US 2007/0072939; not shown for sleep related disorders; cited from earlier work
Compound,therapeutic window (subjects; lower doses (e.g. 5 mg-20 mg)),AHI (subjects; subjects receiving 1 to 75 mg),therapeutic window (sleep apnea patient; lower doses (e.g. 5 mg-20 mg)),AHI (sleep apnea patient; subjects receiving 1 to 75 mg),breathing cessation during non-REM (NREM) sleep (rat model of sleep apnea),"Side Effects, Digestive [1]","Side Effects, Musculoskeletal [1]","Side Effects, Skin and Appendages [1]","Side Effects, Special senses [1]","Side effects with co-administration ([2]; with antipyrine, barbiturates)","Side effects with co-administration ([2]; with atropine, scopolamine, antihistamines, other anticholinergic agents)","Side effects with co-administration ([2]; with barbiturates, benzodiazepines, ethanol, lithium, opioids, buspirone, antihistamines, muscle relaxants, other CNS depressants)","Side effects with co-administration ([2]; with disulfiram, person who smoked marijuana)","Side effects with co-administration ([2]; with fluoxetine 20 mg/day x 4 wks, person, smoking marijuana)","Side effects with co-administration ([2]; with theophylline, smoking of marijuana)",activity compared to the trans-(−)-enantiomer [3]
"CCCCCc1cc(O)c2c(c1)OC(C)(C)[C@@H]1CCC(C)=C[C@@H]21 [Dronabinol, Delta-9-tetrahydrocannabinol]",does not consistently extend through the seventh or eighth hour of sleep,improved,generally extends through the seventh or eighth hour of sleep,improved,reduced breathing cessation,"Diarrhea*, fecal incontinence.",Myalgias.,Flushing*.,Vision difficulties.,"Decreased clearance of these agents,","super-additive tachycardia, drowsiness",Additive drowsiness and CNS depression,reversible hypomanic reaction was reported,became hypomanic after smoking marijuana;,Increased theophylline metabolism reported,
"CCCCCc1cc(O)c2c(c1)OC(C)(C)C1CCC(C)=CC21 (single isomer, unassigned) [trans-(+) enantiomer, trans-(+)-THC]",,,,,,,,,,,,,,,,about 1%
